The structures appear in SMILES notation.

A word on the IC50: it is the concentration needed to halve the response being measured. Lower therefore signals greater potency.

The target of experiment [1] is T1, thrombin (Homo sapiens, UniProt P00734). Briefly: Measurement of the thrombin inhibition in buffer. The settings on record: human thrombin 0.06 nmol/l in Tris buffer pH 7.4, 22° C., substrate Boc-Asp(OBzl)-Pro-Arg-AMC; in some cases means of individual determinations. The experiment is classed as biochemical. As to the method:
To determine the thrombin inhibition of the substances listed above, a biochemical test system is constructed in which the conversion of a thrombin substrate is used for determining the enzymatic activity of human thrombin. Here, thrombin cleaves aminomethylcoumarin, which is measured fluorescently, from the peptic substrate. The determinations are carried out in microtitre plates.
Substances to be tested are dissolved in various concentrations in dimethyl sulphoxide and incubated for 15 min with human thrombin (0.06 nmol/l dissolved in 50 mmol/l of Tris buffer [C,C,C-tris(hydroxymethyl)aminomethane], 100 mmol/l of sodium chloride, 0.1% BSA [bovine serum albumin], pH 7.4) at 22° C. The substrate (5 μmol/l Boc-Asp(OBzl)-Pro-Arg-AMC from Bachem) is then added. After 30 min of incubation, the sample is excited at a wavelength of 360 nm and the emission is measured at 460 nm. The measured emissions of the test mixtures with test substance are compared to the control mixtures without test substance (only dimethyl sulphoxide instead of test substance in dimethyl sulphoxide) and IC50 values are calculated from the concentration/activity relationships. Representative activity data from this test are given in Table 1 below (in some cases as means of individual determinations): […]

Experiment [2] has as its target T1, thrombin. Briefly: Thrombin-inhibitory activity in plasma samples (ecarin-activated). The experiment is classed as biochemical. The settings on record: citrate plasma, ecarin activation, fluorogenic thrombin substrate; read at about 70% of maximum signal (about 12 min); in some cases means. As to the method: To determine the inhibition of thrombin in plasma samples, plasma prothrombinase is activated by ecarin. Thrombin activity and/or its inhibition by potential inhibitors is/are then measured fluorescently by addition of a substrate.
The substances to be tested are dissolved in various concentrations in dimethyl sulphoxide and diluted with water. In white 96-well flat-bottomed plates, 20 μl of substance dilution are mixed with 20 μl of ecarin solution (ecarin reagent, from Sigma E-0504, final concentration 20 mU per reaction) in Ca buffer (200 mM Hepes+560 mM sodium chloride+10 mM calcium chloride+0.4% PEG) or with 20 μl of Ca buffer (as unstimulated control). Furthermore, 20 μl of fluorogenic thrombin substrate (from Bachem 1-1120, final concentration 50 μmol/l) and 20 μl of citrate plasma (from Octapharma) are added, and the mixture is homogenized well. The plate is measured in a SpectraFluorplus Reader using a 360 nm excitation filter and a 465 nm emission filter every minute over 20 minutes. […] Representative activity data from this test are given in Table 2 below (in some cases as means of individual determinations): […]

On to `COc1cc(C(=O)N2CC(C)(CCO)OCC2(C)C)cn2nc(NCc3cccc(Cl)c3)nc12` (single isomer, unassigned) [Example 33, {2-[(3-Chlorobenzyl)amino]-8-methoxy[1,2,4]triazolo[1,5-a]pyridin-6-yl}[2-(2-hydroxyethyl)-2,5,5-trimethylmorpholin-4-yl]methanone], for which the values for the IC50 against thrombin [1] and against thrombin [2] were 4.5 nM and 11 nM, respectively.

Take `COc1cc(C(=O)N2CC(C)(CC(C)O)OCC2(C)C)cn2nc(NCc3cccc(Cl)c3)nc12` (single isomer, unassigned) [Example 34, {2-[(3-Chlorobenzyl)amino]-8-methoxy[1,2,4]triazolo[1,5-a]pyridin-6-yl}[2-(2-hydroxypropyl)-2,5,5-trimethylmorpholin-4-yl]methanone]: the figures for the 50% inhibitory concentration (IC50) on thrombin [1] and on thrombin [2] were 3.9 nM and 19 nM, respectively.

Turning to `COc1cc(C(=O)N2CC(C)(CC(C)O)OCC2(C)C)cn2nc(NCc3cccc(Cl)c3)nc12` (single isomer, unassigned) [Example 35, {2-[(3-Chlorobenzyl)amino]-8-methoxy[1,2,4]triazolo[1,5-a]pyridin-6-yl}[2-(2-hydroxypropyl)-2,5,5-trimethylmorpholin-4-yl]methanone], the concentration for half-maximal inhibition (IC50) is 2.4 nM against thrombin [1] and 8.7 nM against thrombin [2].

As for `COc1cc(C(=O)N2CC(C)(CC(C)O)OCC2(C)C)cn2nc(NCc3cccc(Cl)c3)nc12` (single isomer, unassigned) [Example 36, {2-[(3-Chlorobenzyl)amino]-8-methoxy[1,2,4]triazolo[1,5-a]pyridin-6-yl}[2-(2-hydroxypropyl)-2,5,5-trimethylmorpholin-4-yl]methanone], the IC50 against thrombin [1] turned out to be 54 nM; at thrombin [2], 325 nM.

Regarding `COc1cc(C(=O)N2CC(C)(CC(C)O)OCC2(C)C)cn2nc(NCc3cccc(Cl)c3)nc12` (single isomer, unassigned) [Example 37, {2-[(3-Chlorobenzyl)amino]-8-methoxy[1,2,4]triazolo[1,5-a]pyridin-6-yl}[2-(2-hydroxypropyl)-2,5,5-trimethylmorpholin-4-yl]methanone], the values for the half-inhibitory concentration (IC50) against thrombin [1] and on thrombin [2] were 67 nM and 112 nM, respectively.

Take `COc1cc(C(=O)N2CC(C)(CC(C)O)OCC2(C)C)cn2nc(NCc3cccc(Cl)c3)nc12` (single isomer, unassigned) [Example 39, {2-[(3-Chlorobenzyl)amino]-8-methoxy[1,2,4]triazolo[1,5-a]pyridin-6-yl}[2-(2-hydroxypropyl)-2,5,5-trimethylmorpholin-4-yl]methanone]: the values for the IC50 against thrombin [1] and on thrombin [2] were 30 nM and 34 nM, respectively.

In the case of `COc1cc(C(=O)N2CC(C)OCC2C(C)(C)O)cn2nc(NCc3cccc(Cl)c3)nc12` (single isomer, unassigned) [Example 40, {2-[(3-Chlorobenzyl)amino]-8-methoxy[1,2,4]triazolo[1,5-a]pyridin-6-yl}[5-(2-hydroxypropan-2-yl)-2-methylmorpholin-4-yl]methanone], the figures for the IC50 against thrombin [1] and against thrombin [2] were 31 nM and 75 nM, respectively.

Take `COc1cc(C(=O)N2CC(C)(CC(C)O)OC[C@H]2C)cn2nc(NCc3cccc(Cl)c3)nc12` (single isomer, unassigned) [Example 41]: the IC50 against thrombin [1] turned out to be 1.3 nM; at thrombin [2] it was 4.1 nM.

As to `COc1cc(C(=O)N2CC(C)(C)OCC2CC(C)O)cn2nc(NCc3cccc(Cl)c3)nc12` (single isomer, unassigned) [Example 49, {2-[(3-Chlorobenzyl)amino]-8-methoxy[1,2,4]triazolo[1,5-a]pyridin-6-yl}[5-(2-hydroxypropyl)-2,2-dimethylmorpholin-4-yl]methanone], the results for the IC50 on thrombin [1] and on thrombin [2] were 19 nM and 24 nM, respectively.

For `COc1cc(C(=O)N2CC(C)(CCO)OCC2CF)cn2nc(NCc3cccc(Cl)c3)nc12` (single isomer, unassigned) [Example 53, {2-[(3-Chlorobenzyl)amino]-8-methoxy[1,2,4]triazolo[1,5-a]pyridin-6-yl}[5-(fluoromethyl)-2-(2-hydroxyethyl)-2-methylmorpholin-4-yl]methanone], the values for the IC50 against thrombin [1] and against thrombin [2] were 6.9 nM and 24 nM, respectively.

In the case of `COc1cc(C(=O)N2CC(C)(CCO)OCC2CF)cn2nc(NCc3cccc(Cl)c3)nc12` (single isomer, unassigned) [Example 54, {2-[(3-Chlorobenzyl)amino]-8-methoxy[1,2,4]triazolo[1,5-a]pyridin-6-yl}[5-(fluoromethyl)-2-(2-hydroxyethyl)-2-methylmorpholin-4-yl]methanone], the IC50 on thrombin [1] turned out to be 100 nM; against thrombin [2] it was 611 nM.

Turning to `COc1cc(C(=O)N2CC(C)(CCO)OCC2C(F)F)cn2nc(NCc3cccc(Cl)c3)nc12` (single isomer, unassigned) [Example 55, {[(3-Chlorobenzyl)amino]-8-methoxy[1,2,4]triazolo[1,5-a]pyridin-6-yl}[5-(difluoromethyl)-2-(2-hydroxyethyl)-2-methylmorpholin-4-yl]methanone], the IC50 was 9.6 nM against thrombin [1] and 65 nM on thrombin [2].

Regarding `COc1cc(C(=O)N2CC(C)(CC(C)O)OCC2CF)cn2nc(NCc3cccc(Cl)c3)nc12` (single isomer, unassigned) [Example 56, {[(3-Chlorobenzyl)amino]-8-methoxy[1,2,4]triazolo[1,5-a]pyridin-6-yl}[5-(fluoromethyl)-2-(2-hydroxypropyl)-2-methylmorpholin-4-yl]methanone], the IC50 against thrombin [1] came to 1.3 nM; against thrombin [2], 5.9 nM.

For the compound `CCC1C(=O)N2CCC2CN1C(=O)c1cc(OC)c2nc(NCc3cccc(Cl)c3)nn2c1` (single isomer, unassigned) [Example 59, 4-({2-[(3-Chlorobenzyl)amino]-8-methoxy[1,2,4]triazolo[1,5-a]pyridin-6-yl}carbonyl)-3-ethyl-1,4-diazabicyclo[4.2.0]octan-2-one], the IC50 amounted to 8.3 nM against thrombin [1] and 11 nM at thrombin [2].

As to `COCC1C(=O)N2CCC2CN1C(=O)c1cc(OC)c2nc(NCc3cccc(Cl)c3)nn2c1` (single isomer, unassigned) [Example 60, 4-({2-[(3-Chlorobenzyl)amino]-8-methoxy[1,2,4]triazolo[1,5-a]pyridin-6-yl}carbonyl)-3-(methoxymethyl)-1,4-diazabicyclo[4.2.0]octan-2-one], the results for the IC50 on thrombin [1] and on thrombin [2] were 26 nM and 23 nM, respectively.

As for `COc1cc(C(=O)N2CC3CCN3C(=O)C2C)cn2nc(NCc3cccc(Cl)c3)nc12` (single isomer, unassigned) [Example 61, 4-({2-[(3-Chlorobenzyl)amino]-8-methoxy[1,2,4]triazolo[1,5-a]pyridin-6-yl}carbonyl)-3-methyl-1,4-diazabicyclo[4.2.0]octan-2-one], the IC50 is 23 nM at thrombin [1] and 17 nM at thrombin [2].

Consider `COc1cc(C(=O)N2CC3(CC3)NC(=O)C2C)cn2nc(NCc3cccc(Cl)c3)nc12` (single isomer, unassigned) [Example 62, 7-({2-[(3-Chlorobenzyl)amino]-8-methoxy[1,2,4]triazolo[1,5-a]pyridin-6-yl}carbonyl)-6-methyl-4,7-diazaspiro[2.5]octan-5-one], for which the values for the IC50 at thrombin [1] and against thrombin [2] were 17 nM and 39 nM, respectively.

Values taken from patent publication US20160108039A1, “TRIAZOLOPYRIDINES AS THROMBIN INHIBITORS FOR THE TREATMENT OF THROMBOEMBOLIC DISEASES” (BAYER PHARMA AKTIENGESELLSCHAFT, priority 2013, published 2016).
